Assay results published in US12637414B2, “Arylamides and methods of use thereof” (Genzyme Corporation, priority 2019, dated 2026).

Target: T1, human Cystic Fibrosis Transmembrane Conductance Regulator (CFTR) harboring the ΔF508 mutation (Homo sapiens, UniProt P13569, DEL508-508)
T1 construct: expressed in transfected cells; host or cells: H441 carcinoma line (G418 selection)
Experiment: H441 cell Emax and EC50: HRP-tagged ΔF508-CFTR cell surface luminescence assay
Type: cell-based
Conditions: H441 cells expressing ΔF508-CFTR-HRP, 27° C., two nights; for EC50: 15-point dose-response, top 24.5 μM; for Emax: NCI-H441, % of maximum VX809 signal
Excerpt: Two cell lines were used, the H441 carcinoma line and the CFHBE41o-(41o-) human bronchial epithelial line. Both cell lines expressed human Cystic Fibrosis Transmembrane Conductance Regulator (CFTR) harboring the ΔF508 mutation and with an in-frame fusion in CFTR extracellular loop 4 of Horse Radish Peroxidase (HRP) under control of the CMV promoter. In the presence of the HRP tag, ΔF508-CFTR transported to the cell surface was detectable upon addition of an HRP substrate (Luminata Forte). Both cell types were cultivated at 37° C. with CO2.
For both cell types, the medium was changed every other day unless the culture was at low % confluence. Cells were used for the assays at ˜75% confluence.
To a polypropylene (PP) 384-well plate, 15 μls DMSO was added to all wells in columns 1-22 and 24 (low Control). 15 μls of 260 μM VX809 (Lumacaftor), Selleckchem S1565, was added to column 23 wells (high Control). 15 μls of 10 mM test compound or VX809 (control) were added to wells of row A. Serial dilutions of Row A compound were performed 2×15 μls in rows A through O (15-point).
A PP, 384-well plate containing the appropriate cell culture medium was prepared for each assay plate with 100 μls per well. For the doxycycline-induced 41o-cells, doxycycline for both the assay plate and the medium dilution plate was added at 0.0005 mg/ml to the medium.
Both cell lines were plated for the assay at 30 uls per 384-well at 3.4×10^e5 cells per ml (˜10K cells/well). H441 cells were plated on opaque, white, Corning plate 3704. 41o-cells were plated on collagen-coated opaque, white, Corning plate 356665. For 41o-cells, doxycycline was added to the medium.
Using FX (Beckman) protocol, 10 uls diluted compound or medium was added per well to the Assay Plate as: 2 μls DMSO Dilution plate well is diluted in 100 uls of the Medium Dilution Plate well, mixed, and 10 uls is transferred to the Assay Plate.
The final assay dilution series is 24.5, 12.3, 6.1, 3.1, 1.5, 0.8, 0.4, 0.2, 0.1, 0.05, 0.02, 0.01, 0.006, 0.003, 0.001 and 0 μM. The 41o-assay plates were incubated at 37° C. w/CO2, the H441 assay plates were incubated at 27° C. w/CO2, each overnight for two nights.
After being brought to room temperature, the assay plate liquid was removed. 30 μls of Luminata Forte (Millipore ELLUF0100) was added per well and incubated at room temperature for 10 min. The plates were then read on a Topcount, protocol LumiMatti (CPS, luminescence). The data was analyzed for % of maximum, maximum VX809 signal, and EC50 using Pearl and SPEED tools.

T1 sequence (P13569 with tags, fused parts or gaps DEL508-508): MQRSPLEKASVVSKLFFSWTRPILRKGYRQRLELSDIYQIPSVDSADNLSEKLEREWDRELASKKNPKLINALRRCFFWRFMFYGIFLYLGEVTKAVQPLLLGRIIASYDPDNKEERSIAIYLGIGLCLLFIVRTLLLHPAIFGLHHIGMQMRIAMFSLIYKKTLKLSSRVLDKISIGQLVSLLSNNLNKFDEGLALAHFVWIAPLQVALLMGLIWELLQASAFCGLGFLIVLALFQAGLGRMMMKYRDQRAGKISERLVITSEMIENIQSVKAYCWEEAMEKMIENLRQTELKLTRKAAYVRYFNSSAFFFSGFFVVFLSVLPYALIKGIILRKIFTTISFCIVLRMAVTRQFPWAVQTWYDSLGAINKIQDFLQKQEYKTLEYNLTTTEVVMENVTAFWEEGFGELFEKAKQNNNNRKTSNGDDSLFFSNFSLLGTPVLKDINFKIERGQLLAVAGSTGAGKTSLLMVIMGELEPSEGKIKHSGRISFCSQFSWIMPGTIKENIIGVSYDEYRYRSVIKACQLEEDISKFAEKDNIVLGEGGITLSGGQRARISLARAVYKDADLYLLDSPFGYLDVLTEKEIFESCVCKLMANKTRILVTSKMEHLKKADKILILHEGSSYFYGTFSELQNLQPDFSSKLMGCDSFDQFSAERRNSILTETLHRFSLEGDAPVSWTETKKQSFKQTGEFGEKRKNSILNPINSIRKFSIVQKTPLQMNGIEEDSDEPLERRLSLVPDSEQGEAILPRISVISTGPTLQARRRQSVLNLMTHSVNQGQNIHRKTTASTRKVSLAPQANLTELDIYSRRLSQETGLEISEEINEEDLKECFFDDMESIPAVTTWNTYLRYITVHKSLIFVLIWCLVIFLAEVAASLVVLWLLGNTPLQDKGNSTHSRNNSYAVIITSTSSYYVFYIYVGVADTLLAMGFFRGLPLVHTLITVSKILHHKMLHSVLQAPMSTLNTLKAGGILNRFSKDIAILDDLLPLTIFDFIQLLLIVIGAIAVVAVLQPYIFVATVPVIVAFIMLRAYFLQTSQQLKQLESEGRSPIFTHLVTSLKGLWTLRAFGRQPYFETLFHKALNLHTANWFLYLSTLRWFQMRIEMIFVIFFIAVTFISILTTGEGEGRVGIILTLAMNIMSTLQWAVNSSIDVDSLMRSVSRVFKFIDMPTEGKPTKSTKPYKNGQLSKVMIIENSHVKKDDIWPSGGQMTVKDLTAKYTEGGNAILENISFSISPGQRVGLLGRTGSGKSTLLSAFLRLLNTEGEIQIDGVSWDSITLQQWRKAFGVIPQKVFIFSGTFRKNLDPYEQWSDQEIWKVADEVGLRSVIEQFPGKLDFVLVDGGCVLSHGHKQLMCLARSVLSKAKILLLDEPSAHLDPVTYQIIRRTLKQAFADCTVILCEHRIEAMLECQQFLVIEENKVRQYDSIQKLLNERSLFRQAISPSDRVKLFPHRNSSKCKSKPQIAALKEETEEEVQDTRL

Compound	EC50	Emax
O=C(N[C@H](C(=O)O)C12CC3CC(CC(C3)C1)C2)c1ccc2ccccc2c1OC[C@H]1CC[C@H](C(F)(F)F)CC1 [compound 48]	729 nM	124%
O=C(N[C@H](C(=O)O)C12CC3CC(CC(C3)C1)C2)c1sc2ccccc2c1OCC1CCCCC1 [compound 94]	915 nM	257%
O=C(N[C@H](C(=O)O)C12CC3CC(CC(O)(C3)C1)C2)c1ccc2ccccc2c1OCC1CCCCC1 [compound 30]	1450 nM	96.8%
O=C(N[C@H](C(=O)O)C12CC3CC(CC(C3)C1)C2)c1ccc2ccccc2c1OC[C@H]1CC[C@@H](C(F)(F)F)CC1 [compound 70]	1860 nM	97.4%
Cc1ccc2c(c1C)N(Cc1ccc(C(F)(F)F)cc1)CN([C@H](C(=O)O)C13CC4CC(CC(C4)C1)C3)C2=O [compound 136, (2S)-2-(1-adamantyl)-2-[7,8-dimethyl-4-oxo-1-[[4-(trifluoromethyl)phenyl]methyl]-2H-quinazolin-3-yl]acetic acid]	1580 nM	17%
CC12CC3(C)CC(C)(C1)CC(C(NC(=O)c1ccc4ccccc4c1OCc1ccc(OC(F)(F)F)cc1)C(=O)O)(C2)C3 (stereo not shown) [compound 82]	201 nM	304%
CC(C)C#CCOc1c(C(=O)N[C@H](C(=O)O)C23CC4CC(CC(C4)C2)C3)ccc2cc(F)ccc12 [compound 72]	11200 nM	92.7%
CS(=O)(=O)c1ccc(COc2c(C(=O)N[C@H](C(=O)O)C34CC5CC(CC(O)(C5)C3)C4)ccc3ccccc23)cc1 [compound 10]	16900 nM	29.2%
O=C(O)[C@@H](N1CN(Cc2ccc(OC(F)(F)F)cc2)c2c(ccc3ccccc23)C1=O)C12CC3CC(CC(O)(C3)C1)C2 [compound 119]	614 nM	71%
CC12CC3(C)CC(C)(C1)CC(C(NC(=O)c1ccc4ccccc4c1OCc1ccc(C(F)(F)C(F)(F)F)cc1)C(=O)O)(C2)C3 (stereo not shown) [compound 76]	212 nM	196%
O=C(N[C@H](C(=O)O)C12CC3CC(CC(O)(C3)C1)C2)c1ccc2cc(F)ccc2c1OCc1ccc(S(F)(F)(F)(F)F)cc1 [compound 50]	2170 nM	76.4%
O=C(N[C@H](C(=O)O)C12CC3CC(CC(O)(C3)C1)C2)c1ccc2cc(F)ccc2c1OCC1CCC(F)(F)CC1 [compound 21]	4060 nM	32.5%
CC12CC3(C)CC(C)(C1)CC(C(NC(=O)c1ccc4ccccc4c1OCC1CCC(F)(F)CC1)C(=O)O)(C2)C3 (stereo not shown) [compound 90]	1010 nM	165%
O=C(N[C@H](C(=O)O)C12CC3CC(Cl)(CC(Cl)(C3)C1)C2)c1ccc2ccccc2c1OCc1ccc(SC(F)(F)F)cc1 [compound 81]	113 nM	158%
O=C(N[C@H](C(=O)O)C12CC3CC(CC(C3)C1)C2)c1ccc2cc(F)ccc2c1OCC1CCC(F)(F)CC1 [compound 16]	1750 nM	90%
O=C(O)[C@@H](N1CN(Cc2ccc(SC(F)(F)F)cc2)c2c(ccc3ccccc23)C1=O)C12CC3CC(CC(O)(C3)C1)C2 [compound 121, (2S)-2-(3-hydroxy-1-adamantyl)-2-[4-oxo-1-[[4-(trifluoromethylsulfanyl)phenyl]methyl]-2H-benzo[h]quinazolin-3-yl]acetic acid]	1630 nM	56.5%
O=C(N[C@H](C(=O)O)C12CC3(Cl)CC(Cl)(CC(Cl)(C3)C1)C2)c1ccc2ccccc2c1NCc1ccc(SC(F)(F)F)cc1 [compound 127, (2S)-2-(3,5,7-trichloro-1-adamantyl)-2-[[1-[[4-(trifluoromethylsulfanyl)phenyl]methylamino]naphthalene-2-carbonyl]amino]acetic acid]	625 nM	75.5%

Continued, values first:

EC50	Emax	Compound
3550 nM	150%	O=C(N[C@H](C(=O)O)C12CC3CC(CC(O)(C3)C1)C2)c1ccc2sccc2c1OCc1ccc(C(F)(F)F)cc1 [compound 105, (2S)-2-(3-hydroxy-1-adamantyl)-2-[[4-[[4-(trifluoromethyl)phenyl]methoxy]benzothiophene-5-carbonyl]amino]acetic acid]
172 nM	160%	O=C(N[C@H](C(=O)O)C12CC3CC(CC(C3)C1)C2)c1ccn2cccc2c1OCc1ccc(C(F)(F)F)cc1 [compound 117, (2S)-2-(1-adamantyl)-2-[[8-[[4-(trifluoromethyl)phenyl]methoxy]indolizine-7-carbonyl]amino]acetic acid]
236 nM	89.7%	O=C(N[C@H](C(=O)O)C12CC3CC(CC(C3)C1)C2)c1ccc2cc(F)ccc2c1OCc1ccc(S(F)(F)(F)(F)F)cc1 [compound 56]
903 nM	156%	O=C(N[C@H](C(=O)O)C12CC3CC(CC(O)(C3)C1)C2)c1ccc2ccccc2c1OCc1ccc(C(F)(F)F)cc1 [compound 17]
265 nM	141%	O=C(N[C@H](C(=O)O)C12CC3CC(CC(C3)C1)C2)c1ccc2occc2c1OCc1ccc(Cl)c(Cl)c1 [compound 120, (2S)-2-(1-adamantyl)-2-[[4-[(3,4-dichlorophenyl)methoxy]benzofuran-5-carbonyl]amino]acetic acid]
398 nM	180%	O=C(N[C@H](C(=O)O)C12CC3CC(CC(C3)C1)C2)c1ccc2ccccc2c1OCc1ccc(C(F)(F)F)cc1 [compound 96, (2S)-2-(1-adamantyl)-2-[[1-[[4-(trifluoromethyl)phenyl]methoxy]naphthalene-2-carbonyl]amino]acetic acid]
1600 nM	206%	O=C(N[C@H](C(=O)O)C12CC3CC(CC(C3)C1)C2)c1ccc2cccnc2c1OCc1nc2ccccc2s1 [compound 51]
228 nM	54.9%	C=COc1ccc2c(OCc3ccc(C(F)(F)F)cc3)c(C(=O)N[C@H](C(=O)O)C34CC5CC(CC(C5)C3)C4)ccc2c1 [compound 63]
1320 nM	118%	O=C(N[C@H](C(=O)O)C12CC3CC(CC(C3)C1)C2)c1ccc2ccccc2c1OCc1ccc([N+](=O)[O-])cc1 [compound 73]
228 nM	106%	O=C(N[C@H](C(=O)O)C12CC3CC(CC(OCCF)(C3)C1)C2)c1ccc2cc(F)ccc2c1OCc1ccc(C(F)(F)F)cc1 [compound 25]
126 nM	233%	O=C(N[C@H](C(=O)O)C12CC3CC(CC(OCC(F)(F)F)(C3)C1)C2)c1ccc2ccccc2c1OCc1ccc(C(F)(F)F)cc1 [compound 6]
908 nM	108%	O=C(N[C@H](C(=O)O)C12CC3CC(CC(C3)C1)C2)c1sc2ccccc2c1OCc1ccc(OC(F)(F)F)cc1 [compound 93]
261 nM	165%	O=C(N[C@H](C(=O)O)C12CC3CC(CC(C3)C1)C2)c1ccc2sccc2c1OCc1ccc(OC(F)(F)F)cc1 [compound 111, (2S)-2-(1-adamantyl)-2-[[4-[[4-(trifluoromethoxy)phenyl]methoxy]benzothiophene-5-carbonyl]amino]acetic acid]
153 nM	147%	O=C(N[C@H](C(=O)O)C12CC3CC(CC(Br)(C3)C1)C2)c1ccc2ccccc2c1OCc1ccc(C(F)(F)F)cc1 [compound 54]
1380 nM	84.2%	CC(=O)COC12CC3CC(C1)CC([C@H](NC(=O)c1ccc4cc(F)ccc4c1OCc1ccc(C(F)(F)F)cc1)C(=O)O)(C3)C2 [compound 66]
278 nM	51.9%	O=C(N[C@H](C(=O)O)C12CC3CC(CC(C3)C1)C2)c1ccc2ccccc2c1NCc1ccc(SC(F)(F)F)cc1 [compound 123, (2S)-2-(1-adamantyl)-2-[[1-[[4-(trifluoromethylsulfanyl)phenyl]methylamino]naphthalene-2-carbonyl]amino]acetic acid]
206 nM	176%	O=C(N[C@H](C(=O)O)C12CC3CC(CC(C3)C1)C2)c1ccc2c(F)cccc2c1OCc1ccc(C(F)(F)F)cc1 [compound 1]
441 nM	110%	O=C(NC(C(=O)O)C12CC3CC(CC(OCC(Cl)Cl)(C3)C1)C2)c1ccc2cc(F)ccc2c1OCc1ccc(C(F)(F)F)cc1 (stereo not shown) [compound 91]
